Data taken from US20040228868A1, “Apo-2L receptor agonist and CPT-11 synergism” (Genentech, Inc., priority 1999, published 2004).

System: COLO205 colon carcinoma cells
Test: COLO205 colon carcinoma xenograft tumor growth in athymic nude mice (Example 1)
Assay type: in vivo, human
Conditions: Apo-2L 30 mg/kg/day days 0-4 and 7-11, CPT-11 80 mg/kg/day days 0, 4, 8; for animals in which tumor growth resumed several days after the treatment period: of 9 mice per group
Description: The colon carcinoma cell line COLO205 (available from NCI) were grown and maintained according to the supplier's methods. Briefly, COLO205 cells were cultured in high glucose DMEM/F12 (50:50) media containing 10% fetal bovine serum and 2.0 mM-L-Glutamine. […] Cell-paste containing recombinant human soluble Apo-2L was extracted with a buffer containing 0.1M Tris/0.2M NaCl/50 mM EDTA, pH 8.0. The extract was precipitated by 40% ammonium sulfate. […] Purity was determined by sodium-dodecyl sulfate (SDS)-polyacrylamide gel electrophoresis and silver-nitrate or coomassie-blue staining, by amino acid sequence analysis, and by size-exclusion on high performance liquid chromatography (HPLC). CPT-11 (Camptosar®) was obtained from Pharmacia & Upjohn.
Athymic nude mice (Jackson Laboratories) were injected subcutaneously with 5 million COLO205 colon carcinoma cells and the tumors allowed to grow to about 120 mm^3. Tumor-bearing mice were randomized into 4 groups at 9 mice per group and treated with either vehicle (20 mM Tris, 8% Trehalose, 0.01 Tween-20, pH 7.5), Apo-2L (30 mg/kg/day on days 0-4 and 7-11), or CPT-11 (80 mg/kg/day on days 0, 4, and 8), or a combination of Apo-2L (30 mg/kg/day on days 0-4 and 7-11) plus CPT-11 (80 mg/kg/day on days 0, 4, and 8). Tumor volumes were determined at the indicated days over 34 days.

Row | Molecule | animals in which tumor growth resumed several days after the treatment period [animals] | effect on tumor growth (tumor volume, FIG. 1) (s.c. COLO205 tumors about 120 mm^3, 9 mice per group, followed 34 days)
1 | CCc1c2c(nc3ccc(OC(=O)N4CCC(N5CCCCC5)CC4)cc13)-c1cc3c(c(=O)n1C2)COC(=O)[C@]3(O)CC.Cl.O.O.O [CPT-11, (4S)-4,11-diethyl-4-hydroxy-9-[(4-piperidino-piperidino)carbonyloxyl]-1H-pyrano[3′,4′:6,7]indolizino[1,2-b]quinoline-3,14(4H,12H)dione hydrochloride trihydrate] | 9 | –
2 | Apo-2L: recombinant human soluble Apo-2L, extracellular portion amino acids 114-281, prepared in E. coli | 9 | suppressed tumor growth during the treatment period
